This is an account of results in ChEMBL document CHEMBL5518242, “Discovery and Optimization of Novel Nonbile Acid FXR Agonists as Preclinical Candidates for the Treatment of Inflammatory Bowel Disease” (J Med Chem, 2024).

For this data set the following is noted: human, caco-2.

Description: Permeability in human Caco-2 cells

For `Cn1cc(C(=O)O)c2ccc(N3CCC(OCc4c(-c5c(Cl)cccc5Cl)noc4C4CC4)CC3)cc21` [TERN-101], the permeability result is “Permeable”.
